Reference: the supplement of paper PMC10307832

compound: C[C@]1(c2nc3c(C(N)=O)cccc3[nH]2)CCCN1 [Veliparib] + CC(=O)c1c(C)c2cnc(Nc3ccc(N4CCNCC4)cn3)nc2n(C2CCCC2)c1=O [Palbociclib] (partner 0.5 µM); test: relative viability (nuclei count vs DMSO), 5 days (fraction); higher = more cells survive; settings: first compound 0.2 µM
In short: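 One day after seeding in 1536-well plates, lung cancer cell lines were dosed by pin tool. Dosing was either single-drug or a fixed anchor-drug dose plus five library-drug doses (not always all listed) in √10 steps. After 5 days, nuclei were stained in one fix-and-stain step and counted on 4× images, and relative viability is the nuclei count of treated wells over that of vehicle wells, given as the median of duplicate plates.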

Row | Cell Line | relative viability
1 | HCC-827 | 0.51
2 | NCI-H522 | 1.18
3 | LCLC-103H | 0.48
4 | RERF-LC-KJ | 1.06
5 | NCI-H3122 | 0.207
6 | BEN | 0.479
7 | UMC-11 | 0.318
8 | LCLC-97TM1 | 0.233
9 | NCI-H2085 | 0.477
10 | A-427 | 0.529
11 | NCI-H727 | 0.624
12 | NCI-H838 | 0.235
13 | NCI-H1793 | 0.336
14 | 201T | 0.364
15 | NCI-H2228 | 0.645
16 | LOU-NH91 | 0.552
17 | NCI-H1666 | 0.644
18 | NCI-H650 | 0.344

Row | Cell Line | relative viability
19 | ChaGo-K-1 | 1.02
20 | NCI-H1993 | 0.59
21 | HCC-44 | 0.996
22 | NCI-H647 | 0.425
23 | NCI-H2126 | 0.373
24 | NCI-H1755 | 0.442
25 | PC-3 [JPC-3] | 0.493
26 | NCI-H1792 | 0.704
27 | NCI-H2087 | 0.249
28 | NCI-H441 | 0.266
29 | HOP-62 | 0.483
30 | NCI-H2170 | 0.435
31 | NCI-H2347 | 0.404
32 | HARA | 0.308
33 | NCI-H1355 | 0.375
34 | NCI-H1915 | 0.519
35 | SK-MES-1 | 0.329

same assay, conditions: first compound 0.6325 µM

Row | Cell Line | relative viability
36 | NCI-H2342 | 0.522
37 | LU99A | 0.381
38 | NCI-H1975 | 0.543
39 | H3255 | 0.304
40 | NCI-H2023 | 0.346
41 | NCI-H2405 | 0.504
42 | SK-LU-1 | 0.362
43 | NCI-H1734 | 0.323
44 | NCI-H1437 | 0.362
45 | ABC-1 | 0.694
46 | HCC-15 | 0.703
47 | NCI-H460 | 0.121
48 | EMC-BAC-2 | 0.486
49 | NCI-H2009 | 0.205
50 | COR-L 105 | 0.375
51 | NCI-H1395 | 0.565
52 | NCI-H520 | 0.212
53 | NCI-H1648 | 0.232
54 | NCI-H358 | 0.137
55 | HCC-78 | 0.456
56 | EKVX | 0.373
57 | NCI-H1650 | 0.322

Row | Cell Line | relative viability
58 | EPLC-272H | 0.317
59 | LK-2 | 0.616
60 | PC-14 | 0.465
61 | LXF-289 | 0.601
62 | LC-2-ad | 0.477
63 | SW 900 | 0.539
64 | NCI-H1651 | 0.499
65 | COR-L23 | 0.25
66 | HCC-827 | 0.176
67 | NCI-H522 | 1.11
68 | LCLC-103H | 0.44
69 | RERF-LC-KJ | 1.09
70 | NCI-H3122 | 0.179
71 | BEN | 0.5
72 | UMC-11 | 0.331
73 | LCLC-97TM1 | 0.23
74 | NCI-H2085 | 0.471
75 | A-427 | 0.5
76 | NCI-H727 | 0.661
77 | NCI-H838 | 0.225
78 | NCI-H1793 | 0.348
79 | 201T | 0.356

Row | Cell Line | relative viability
80 | NCI-H2228 | 0.774
81 | LOU-NH91 | 0.574
82 | NCI-H1666 | 0.655
83 | NCI-H650 | 0.33
84 | ChaGo-K-1 | 0.892
85 | NCI-H1993 | 0.614
86 | HCC-44 | 0.964
87 | NCI-H647 | 0.423
88 | NCI-H2126 | 0.33
89 | NCI-H1755 | 0.455
90 | PC-3 [JPC-3] | 0.566
91 | NCI-H1792 | 0.692
92 | NCI-H2087 | 0.264
93 | NCI-H441 | 0.213
94 | HOP-62 | 0.343
95 | NCI-H2170 | 0.386
96 | NCI-H2347 | 0.444
97 | HARA | 0.327
98 | NCI-H1355 | 0.417
99 | NCI-H1915 | 0.512
100 | SK-MES-1 | 0.307

same assay, conditions: first compound 2 µM

Row | Cell Line | relative viability
101 | NCI-H2342 | 0.491
102 | LU99A | 0.451
103 | NCI-H1975 | 0.535
104 | H3255 | 0.358
105 | NCI-H2023 | 0.398
106 | NCI-H2405 | 0.503
107 | SK-LU-1 | 0.378
108 | NCI-H1734 | 0.349
109 | NCI-H1437 | 0.335
110 | ABC-1 | 0.405
111 | HCC-15 | 0.718
112 | NCI-H460 | 0.131
113 | EMC-BAC-2 | 0.544
114 | NCI-H2009 | 0.2
115 | COR-L 105 | 0.444
116 | NCI-H1395 | 0.554
117 | NCI-H520 | 0.223
118 | NCI-H1648 | 0.274
119 | NCI-H358 | 0.119
120 | HCC-78 | 0.442
121 | EKVX | 0.383
122 | NCI-H1650 | 0.345

Row | Cell Line | relative viability
123 | EPLC-272H | 0.302
124 | LK-2 | 0.779
125 | PC-14 | 0.523
126 | LXF-289 | 0.649
127 | LC-2-ad | 0.505
128 | SW 900 | 0.56
129 | NCI-H1651 | 0.485
130 | COR-L23 | 0.27
131 | HCC-827 | 0.454
132 | NCI-H522 | 1
133 | LCLC-103H | 0.456
134 | RERF-LC-KJ | 1.13
135 | NCI-H3122 | 0.192
136 | BEN | 0.465
137 | UMC-11 | 0.368
138 | LCLC-97TM1 | 0.249
139 | NCI-H2085 | 0.479
140 | A-427 | 0.593
141 | NCI-H727 | 0.605
142 | NCI-H838 | 0.224
143 | NCI-H1793 | 0.331
144 | 201T | 0.373

Row | Cell Line | relative viability
145 | NCI-H2228 | 0.759
146 | LOU-NH91 | 0.538
147 | NCI-H1666 | 0.654
148 | NCI-H650 | 0.331
149 | ChaGo-K-1 | 0.944
150 | NCI-H1993 | 0.636
151 | HCC-44 | 1.01
152 | NCI-H647 | 0.469
153 | NCI-H2126 | 0.313
154 | NCI-H1755 | 0.395
155 | PC-3 [JPC-3] | 0.543
156 | NCI-H1792 | 0.659
157 | NCI-H2087 | 0.216
158 | NCI-H441 | 0.218
159 | HOP-62 | 0.368
160 | NCI-H2170 | 0.399
161 | NCI-H2347 | 0.477
162 | HARA | 0.265
163 | NCI-H1355 | 0.402
164 | NCI-H1915 | 0.504
165 | SK-MES-1 | 0.297
